In patent US20200038416A1, “METHODS OF TREATING CARDIAC CONDUCTION DEFECTS USING AMINOSTEROL COMPOSITIONS” (Enterin, Inc., priority 2018, published 2020):
Entries after “also recorded” stand apart in the source; their conditions may differ.

Assays:
[1] = Oral bioavailability / systemic absorption estimate versus prior IV pharmacokinetic data; assay type: in vivo, human; conditions: this study, PD patients
Experimental: PK data were collected on the 10 patients enrolled in Stage 1 and 10 patients enrolled in Stage 2 to determine the extent of systemic absorption. In Stage 1, PK data were obtained at each visit, pre-medication, at 1, 2, 4, 8 and 24 hours (Table 10). In Stage 2, PK was measured on days 1 and 6 of the randomization period pre-medication, at 1, 2, 4 and 8 hours (Table 11).

[2] = Prior clinical trials of intravenous squalamine; assay type: in vivo, human; conditions: prior studies
Experimental: Systemic absorption of the aminosterol following oral administration was negligible both in this study and in prior studies involving mice, rats and dogs. […] The topical action would also explain why adverse events were largely confined to the gastrointestinal tract.
In the current clinical trial, squalamine (ENT-01) was administered orally to subjects with PD who have long standing constipation. Although this trial was the first in man oral dosing study of ENT-01, humans have long been exposed to low doses of squalamine (milligram to microgram) in the various commercial dogfish shark liver extracts available as nutraceuticals (e.g., Squalamax).

[3] = tested on: mice with constipation due to overexpression of human αS; conditions: mouse models of PD, oral administration; cited from earlier work
[4] = tested on: IPANs (intrinsic primary afferent neuron); conditions: perfusion through lumen of isolated bowel segment; cited from earlier work
[5] = prior studies; cited from earlier work
[6] = mice, systemic administration; into the duodenum through the biliary tract; cited from earlier work

For `CC(C)[C@@H](CC[C@@H](C)[C@H]1CC[C@H]2[C@@H]3[C@H](O)C[C@H]4C[C@@H](NCCCNCCCCN)CC[C@]4(C)[C@H]3CC[C@]12C)OS(=O)(=O)O` [squalamine], which “systemic absorption following oral administration” value [1] is on record?
The value was “negligible; also recorded: not significantly absorbed”.

And the “systemic blood levels after intravenous versus oral administration” value [2]?
Its value is “one thousand-fold greater”.

And the gastrointestinal motility [3]?
Its gastrointestinal motility is “stimulates gastro-intestinal motility; also recorded: reverse gastrointestinal dysmotility”.

What about the “effect on IPANs of the ENS” value [4] of the same compound?
The value was “excitation of IPANs”.

What about the “effect of intravenous administration on gastrointestinal motility” value [5] of the same compound?
The value was “not associated with increased gastrointestinal motility”.

What about the clearance and excretion [6] of the same compound?
The clearance and excretion was “cleared by the liver and excreted as the intact molecule”.
